Test results taken from US8716183B2, “Control of aquatic weeds with endothall and ALS-inhibiting agent” (SePro Corporation, priority 2008, dated 2014).

Columns and labels:
hydrilla [1] = experiment: Penoxsulam+endothall under static exposure to hydrilla, GR50 and Isobole analysis; assay type: in vivo, Hydrilla verticillata; details: harvested 55 days after treatment, n = 3, endothall as a.e., combinations as total ppb
From the text: (§1) Single apical meristems of hydrilla, collected from Florida, were planted into small pots (13.5 cm length×3.75 cm diameter) containing Wallace Farm® topsoil amended with 14-14-14 slow release Osmocote® fertilizer (˜2.5 g Osmocote/kg soil) on 18 Jul. 2008. Approximately 5 to 7 cm of the apical section extended above the sediment at planting, and a sand cap was placed over the potting soil (˜2 cm deep). Plants were then transferred to a 12 L acrylic tanks filled with well water. Tanks were maintained in a growth room with 14:10 h photoperiod at 26° C. Plants were allowed to establish growth for 14 days before treatment.
(§2) Treatments were replicated three times in a completely randomized design. […] All concentrations are expressed as a.e. for endothall.
All above ground biomass was harvested 55 days after treatment. Biomass was dried to constant moisture at 70° C., and dry weights were determined. Data were subjected to regression analysis using Sigma Plot software, and a GR50 was determined (concentration causing a 50% reduction in dry weight). All data were analyzed for synergism/antagonism using the Isobole analysis at the 95% confidence level (estimated using linear interpolation from 95% confidence bands) (Berenbaum, M. C. 1989, Pharmacological Reviews. 41:93-141; Streibig, J. C. 2003, Assessment of herbicide effects: http://www.ewrs.org/et/images/, Herbicide interaction.pdf). […]

hydrilla [2] = experiment: Penoxsulam+endothall under multiple exposures to hydrilla, dry weight and Colby analysis; assay type: in vivo, Hydrilla verticillata; details: for Mean dry weight of hydrilla: penoxsulam 0.02, endothall 0.68 mg/L a.e.; for OBSERVED RESPONSE: penoxsulam 0.02, endothall 0.68 mg/L; for hydrilla biomass compared to untreated controls (LSD, p = 0.05): penoxsulam 0.02 or endothall 0.68 mg/L a.e. alone, 3 to 48 day exposures
From the text: Apical sections (12 to 15 cm in length) of hydrilla, collected from Florida, were planted into small pots (13.5 cm length×3.75 cm diameter) containing Wallace Farm® topsoil amended with 14-14-14 slow release Osmocote® fertilizer (˜2.5 g Osmocote/kg soil) on 16 Oct. 2008. Approximately 5 to 7 cm of the apical section extended above the sediment at planting, and a sand cap was placed over the potting soil (˜2 cm deep). Plants were then transferred to a 12 L acrylic tanks filled with well water. Tanks were maintained in a growth room with 14:10 h photoperiod at 26° C. Plants were allowed to grow for 8 days before the following treatments were initiated in triple replicate: • A) Untreated controls • B) Penoxsulam at 0.02 mg/L • C) Endothall at 0.68 mg/L a.e. • D) Simultaneous treatment • a. Penoxsulam 0.02 mg/L+endothall at 0.68 mg/L • i. Exposure times • 1. 3 days • 2. 6 days • 3. 12 days • 4. 24 days • 5. 48 days (static) • E) Sequential treatment • a. Penoxsulam 0.02 mg/L, add 0.68 mg/L endothall 24 days later—static exposure to combination • b. Endothall at 0.68 mg/L, add 0.02 mg/L penoxsulam 24 days later—static exposure to combination • c. Penoxsulam 0.02 mg/L, add 0.68 mg/L endothall 12 days later—12 day exposure to combination • d. Endothall at 0.68 mg/L, add 0.02 mg/L penoxsulam 12 days later—12 day exposure to combination • e. Penoxsulam 0.02 mg/L, add 0.68 mg/L endothall 6 days later—6 day exposure to combination • f. Endothall at 0.68 mg/L, add 0.02 mg/L penoxsulam 6 days later—6 day exposure to combination
Endothall was formulated as Aquathol K® (4.23 #/gallon dipotassium salt, or 3#/gallon a.e.); penoxsulam was formulated as Galleon SC® (2#/gallon active ingredient). All concentrations are expressed as a.e. for endothall. At each exposure time, plants were removed from treatments and placed in a tank with fresh water containing no herbicide (including controls) to remove the aqueous exposure and allow for recovery.
Plants were harvested at 48 days after initial treatment. At harvest, plants were rinsed free of algae and placed in paper sacks in a drying oven for 4 days at 70° C. temperature. Mean dry weights were determined and means separated using least significant differences. Difference between observed and expected responses was determined to evaluate potential interactions using methods reported by Colby (Colby S. R. 1967. Weeds. 15:20-22).

hydrilla [3] = experiment: Imazamox+endothall under static exposure to hydrilla, GR50 and Isobole analysis; assay type: in vivo, Hydrilla verticillata; details: harvested 34 days after treatment, n = 3, endothall as a.e., combinations as total ppb
From the text: as §1, with “on 4 Nov.” for “on 18 Jul.”, “for 10” for “for 14”
as §2
All above ground biomass was harvested 34 days after treatment. Biomass was dried to constant moisture at 70° C., and dry weights were determined. Data were subjected to regression analysis using Sigma Plot software, and a GR50 was determined (concentration causing a 50% reduction in dry weight). All data were analyzed for synergism/antagonism using the Isobole analysis at the 95% confidence level (estimated using linear interpolation from 95% confidence bands) (refer to Example 2 for more information on Isobole analysis).

hydrilla [4] = details: cited from earlier work
[5] = tested on: hydrilla (Hydrilla verticillata); experiment: Field Study 1: hydrilla control in a 6 acre lake divided into three zones; assay type: in vivo; details: 21 days after treatment
Protocol: A 6 acre somewhat rectangular-shaped lake was divided into three 2 acre zones for this testing. A 2-acre test site (Zone 1), located on the northern one-third of the lake, was treated with a penoxsulam plus endothall combination in order to evaluate control of the exotic aquatic weed, hydrilla (Hydrilla verticillata). Within a 50 gallon spray tank system powered by a 5.5 Hp Honda motor, 0.523 gallons Galleon SC (a commercially available penoxsulam formulation) and 12.7 gallons Aquathol K (a commercially available endothall formulation) were added to 36.78 gallons of water. The herbicide combination mixture delivered an application dose of 15 parts per billion penoxsulam and 0.71 ppm a.e. endothall to Zone 1. This herbicide mixture was evenly injected using a trailing hose over the airboat bow throughout the 2 acre Zone 1. On the day of treatment, Zone 1 contained approximately 90% hydrilla coverage, with growth near or at the water surface.
The remaining 4 acres (both Zone 2 (central one-third) and Zone 3 (southern one-third)) of the lake were treated with 15 ppb penoxsulam alone on the same day. Both Zones 2 and 3 contained approximately 90-95% hydrilla coverage at that time.
Twenty one days following the initial treatment, the hydrilla was assessed for herbicidal injury within Zones 1, 2, and 3. […] Approximately 10% of the original plant volume remained near the water's surface; the balance had fallen to the lake bottom. The same was true for a 1 acre area contiguous down lake to Zone 1 moving into Zone 2. All remaining hydrilla plants suspended in the water column within the 3 acres were expressing severe injury.
On this date, 0.71 ppm a.e. endothall (12.7 gallons Aquathol K) was applied to Zone 3 in order to evaluate contact herbicidal efficacy 21 days following a penoxsulam treatment.

[6] = 3-d exposure, harvested 48 days after initial treatment, n = 3
[7] = 6-d exposure (f/b: second agent added 6 days later, 6 day exposure to combination), harvested at 48 days
[8] = 12-d exposure (f/b: second agent added 12 days later, 12 day exposure to combination), harvested at 48 days
[9] = 24-d exposure (f/b: second agent added 24 days later, static exposure to combination), harvested at 48 days
[10] = 48-d (static) exposure, harvested at 48 days
[11] = Zone 3 and southern portion of Zone 2, 15 ppb penoxsulam alone

Q: For `O=C(O)[C@@H]1[C@H](C(=O)O)[C@H]2CC[C@@H]1O2` [Endothall, 3,6-endoxohexahydrophthalic acid], which “GR50 (concentration causing a 50% reduction in dry weight)” value (hydrilla [1]) is on record?
A: The value was 309 ppb.

Q: What about the “Mean dry weight of hydrilla” value (hydrilla [2]; [6]) of the same molecule?
A: The value was 2.24b.

Q: What about the “Mean dry weight of hydrilla” value (hydrilla [2]; [7]) of the same molecule?
A: The value was 2.61ab.

Q: What about the “Mean dry weight of hydrilla” value (hydrilla [2]; [8]) of the same molecule?
A: The value was 2.72c.

Q: And the “Mean dry weight of hydrilla” value (hydrilla [2]; [9])?
A: Its value is 2.14bc.

Q: And the “Mean dry weight of hydrilla” value (hydrilla [2]; [10])?
A: The value was 1.62b.

Q: And the “OBSERVED RESPONSE” value (hydrilla [2]; exposure 3 days)?
A: The value was 64% of control.

Q: What about the “OBSERVED RESPONSE” value (hydrilla [2]; exposure 6 days) of the same molecule?
A: The value was 62% of control.

Q: And the “OBSERVED RESPONSE” value (hydrilla [2]; exposure 12 days)?
A: Its value is 48% of control.

Q: What about the “OBSERVED RESPONSE” value (hydrilla [2]; exposure 24 days) of the same molecule?
A: Its value is 47% of control.

Q: And the “OBSERVED RESPONSE” value (hydrilla [2]; exposure 48 days)?
A: Its value is 35% of control.

Q: And the “hydrilla biomass compared to untreated controls (LSD, p = 0.05)” value (hydrilla [2])?
A: Its value is “reduced hydrilla biomass compared to untreated controls at all exposure periods, except 3 and 6-day”.

Q: And the “GR50 (concentration causing a 50% reduction in dry weight)” value (hydrilla [3])?
A: The value was 520 ppb.

Q: What about the hydrilla control (hydrilla [4]; 0.71 ppm a.e. endothall partial area/spot treatment, general) of the same molecule?
A: Its hydrilla control is “essentially no hydrilla control”.

Q: And the “time before hydrilla plants defoliate and drop toward the lake bottom” value (hydrilla [4]; 1.4 to 3.5 ppm a.e. endothall, typical, dependent on plant maturity)?
A: The value was 2-6 weeks.

Q: What about the “contact with hydrilla required to achieve effective control” value (hydrilla [4]; Netherland et al. 1991) of the same molecule?
A: The value was “less than 72 hours”.

Q: Which “GR50 (concentration causing a 50% reduction in dry weight)” value (hydrilla [3]) does the source give for `COCc1cnc(C2=NC(C)(C(C)C)C(=O)N2)c(C(=O)O)c1` (stereo not drawn) [Imazamox] here?
A: Its value is 680 ppb.

Q: For `COc1cnc(OC)n2nc(NS(=O)(=O)c3c(OCC(F)F)cccc3C(F)(F)F)nc12` [Penoxsulam, 2-(2,2-difluoroethoxy)-6-trifluoromethyl-N-(5,8-dimethoxy[1,2,4]triazolo[1,5c]pyrimidin-2-yl)benzenesulfonamide], which “GR50 (concentration causing a 50% reduction in dry weight)” value (hydrilla [1]) is on record?
A: Its value is 12 ppb.

Q: What about the “Mean dry weight of hydrilla” value (hydrilla [2]; [6]) of the same molecule?
A: Its value is 4.01a.

Q: What about the “Mean dry weight of hydrilla” value (hydrilla [2]; [7]) of the same molecule?
A: The value was 3.97a.

Q: And the “Mean dry weight of hydrilla” value (hydrilla [2]; [8])?
A: Its value is 3.68ab.

Q: What about the “Mean dry weight of hydrilla” value (hydrilla [2]; [9]) of the same molecule?
A: Its value is 3.24ab.

Q: And the “Mean dry weight of hydrilla” value (hydrilla [2]; [10])?
A: Its value is 2.41ab.

Q: And the “OBSERVED RESPONSE” value (hydrilla [2]; exposure 3 days)?
A: The value was 115% of control.

Q: What about the “OBSERVED RESPONSE” value (hydrilla [2]; exposure 6 days) of the same molecule?
A: Its value is 95% of control.

Q: And the “OBSERVED RESPONSE” value (hydrilla [2]; exposure 12 days)?
A: Its value is 97% of control.

Q: What about the “OBSERVED RESPONSE” value (hydrilla [2]; exposure 24 days) of the same molecule?
A: Its value is 72% of control.

Q: And the “OBSERVED RESPONSE” value (hydrilla [2]; exposure 48 days)?
A: Its value is 52% of control.

Q: What about the “hydrilla biomass compared to untreated controls (LSD, p = 0.05)” value (hydrilla [2]) of the same molecule?
A: Its value is “not significantly different from untreated controls”.

Q: What about the “time before severe injury is expressed” value (hydrilla [4]; penoxsulam treated hydrilla, typical) of the same molecule?
A: The value was “about 60 days”.

Q: And the hydrilla control [5, 11]?
A: Its hydrilla control is “no control was observed”.

Q: What about the “hydrilla remaining near the water's surface” value [5, 11] of the same molecule?
A: Its value is “Approximately 90%”.

Q: What about the “herbicidal injury of hydrilla” value ([5]; Zones 2 and 3, 15 ppb penoxsulam alone) of the same molecule?
A: The value was “slight but expected penoxsulam injury”.
